# From patent publication US20260265754A1, “CHK1-TARGETING SIRNAS CHEMICALLY MODIFIED WITH GEMCITABINE” (Sirnaomics, Inc., priority 2024, published 2026)
# Where a name gives a salt, the structure may show the parent alone. d = 2'-deoxy (DNA); m = 2'-O-methyl; f = 2'-fluoro
# Legend:
# [1] = system: MiaPaCa-2 (pancreatic cancer) cells; assay: Cell viability assay (CellTiter-Glo), lipofectamine transfection, MiaPaCa-2; format: cell-based; conditions: for Activity/efficacy in reducing cell viability: MiaPaCa-2 cells, FIG. 1; for Improvement of dose response over gemcitabine alone: MiaPaca2 cells
# Protocol: All cell lines were obtained from ATCC (Rockville, MD). Cells were cultured in standard media supplemented with 10% FBS: Panc 10.05, H1299 and H358 in RPMI-1640 Medium, MiaPaCa-2, HT29 and MDA-MB-231 in DMEM, LS180 in EMEM. All media were obtained from ATCC (Rockville, MD). Cells were seeded in 384-well plates at a density of 0.3×10^3 to 1×10^3 cells/well. On the next day, cells were treated with serially diluted gemcitabine or siRNAs delivered by Lipofectamine RNAiMAX (Life Technologies, Carlsbad, CA). Ninety-six (96) hours after addition of gemcitabine or transfection reagent, the number of viable cells was determined using CellTiter-Glo(R)-2.0 reagent (Promega, Madison, WI) by measuring luminescent signal on a Cytation 5 plate reader (BioTek Inc, Winooski, VT). All values were compared to values generated for cells treated with non-silencing (NS) siRNA or to non-treated control and reported as the percentage cell viability. Values represent the mean±SD (n=4). All values were normalized to values generated for cells treated with a non-silencing siRNA and reported as the percentage cell viability. Calculation ofEC50 values. The EC50 values of the Gemcitabine, or Gemcitabine-modified siRNAs, (half-maximal effective concentration) were derived from a sigmoidal dose-response (variable slope) curve using GraphPad Prism 10.0.2(232) software (GraphPad Software, San Diego, Ca). Combination index (CI) calculation. […] CI=([…])2, where (Dx)1 and (Dx)2 are the doses of drug 1 and drug 2, alone, inhibiting 50%, whereas (D1) is the dose of drug 1 in combination, and (D2) the dose of drug 2 in combination that gives the experimentally observed 50% inhibition. These siRNA constructs were tested for their ability to reduce viability of pancreatic cancer using Miapaca2 cells after lipofectamine transfection of the siRNAs at varying concentrations. All of the constructs could inhibit the viability of these cells by 100% at concentrations below 100 nM. The contribution of the gemcitabine within the constructs was studied by making and evaluating constructs lacking the gemcitabine.
# [2] = PNP particle size and zeta potential by dynamic light scattering; format: physicochemical; parameters: Nanoparticle size: unit not given here; conditions: for Nanoparticle size: siRNA formulated with HKP(+H), dynamic light scattering
# Protocol: To test the efficacy of the products in vivo siRNAs (non-silencing siRNA (Control; NS), and PGN6) were formulated with a branched histidine lysine polymer (HKP (+H)) to form peptide nanoparticle (PNP) formulations were prepared using a microfluidic mixing system with a staggered herringbone patterned mixer (Precision NanoSystems, Vancouver, BC, Canada). HKP(+H) stock was prepared in water and diluted to appropriate concentrations. PolyGem siRNA or non-silencing (NS) siRNA stocks were prepared in water. The HKP(+H) and siRNA were mixed at a volume ratio of 1:1 at 8-10 mL/min total flow rate. Formulations were incubated for 30 min at room temperature. Particle size and zeta potential were then determined by dynamic light scattering with a Zetasizer Ultra (Malvern Panalytical, MA). A gel retardation assay was used to evaluate the efficiency of complex formation. Briefly, pre-formed PNPs were mixed with RNA loading dye and applied to 2% agarose gel. The gel was run in 0.5×TBE for 15 min. Electrophoretic mobility of the siRNA-nanoparticles was analyzed on a gel imaging system.
# [3] = system: OVCAR-3 (ovarian cancer) cells; assay: Cell viability assay, lipofectamine transfection, OVCAR-3; format: cell-based; conditions: OVCAR-3 cells, FIG. 2L
# Protocol: (§1) Cells were seeded in 384-well plates at a density of 0.3×10^3 to 1×10^3 cells/well. On the next day, cells were treated with serially diluted gemcitabine or siRNAs delivered by Lipofectamine RNAiMAX (Life Technologies, Carlsbad, CA). Ninety-six (96) hours after addition of gemcitabine or transfection reagent, the number of viable cells was determined using CellTiter-Glo(R)-2.0 reagent (Promega, Madison, WI) by measuring luminescent signal on a Cytation 5 plate reader (BioTek Inc, Winooski, VT). All values were compared to values generated for cells treated with non-silencing (NS) siRNA or to non-treated control and reported as the percentage cell viability. Values represent the mean±SD (n=4). All values were normalized to values generated for cells treated with a non-silencing siRNA and reported as the percentage cell viability. Calculation ofEC50 values. The EC50 values of the Gemcitabine, or Gemcitabine-modified siRNAs, (half-maximal effective concentration) were derived from a sigmoidal dose-response (variable slope) curve using GraphPad Prism 10.0.2(232) software (GraphPad Software, San Diego, Ca).
# MDA-MB-231 (TNBC) cells = assay: Cell viability assay (CellTiter-Glo), lipofectamine transfection, MDA-MB-231; format: cell-based; conditions: MDA-MB-231 cells, FIG. 2K
# Protocol: as §1, with “All cell lines were obtained from ATCC (Rockville, MD). Cells were cultured in standard media supplemented with 10% FBS: Panc 10.05, H1299 and H358 in RPMI-1640 Medium, MiaPaCa-2, HT29 and MDA-MB-231 in DMEM, LS180 in EMEM. All media were obtained from ATCC (Rockville, MD). Cells” for “Cells”
# H1299 (KRAS wt) cells = assay: Cell viability assay (CellTiter-Glo), lipofectamine transfection, H1299; format: cell-based
# Protocol: (§2) All cell lines were obtained from ATCC (Rockville, MD). Cells were cultured in standard media supplemented with 10% FBS: Panc 10.05, H1299 and H358 in RPMI-1640 Medium, MiaPaCa-2, HT29 and MDA-MB-231 in DMEM, LS180 in EMEM. All media were obtained from ATCC (Rockville, MD).
# as §1, with “viability.” for “viability. Calculation ofEC50 values. The EC50 values of the Gemcitabine, or Gemcitabine-modified siRNAs, (half-maximal effective concentration) were derived from a sigmoidal dose-response (variable slope) curve using GraphPad Prism 10.0.2(232) software (GraphPad Software, San Diego, Ca).”
# (§3) Calculation ofEC50 values. The EC50 values of the Gemcitabine, or Gemcitabine-modified siRNAs, (half-maximal effective concentration) were derived from a sigmoidal dose-response (variable slope) curve using GraphPad Prism 10.0.2(232) software (GraphPad Software, San Diego, Ca). […]
# H358 cells (KRAS G12C) = assay: Cell viability assay (CellTiter-Glo), lipofectamine transfection, H358; format: cell-based
# Protocol: as §2
# as §1, with “viability.” for “viability. Calculation ofEC50 values. The EC50 values of the Gemcitabine, or Gemcitabine-modified siRNAs, (half-maximal effective concentration) were derived from a sigmoidal dose-response (variable slope) curve using GraphPad Prism 10.0.2(232) software (GraphPad Software, San Diego, Ca).”
# as §3
# H2030 (G12C) cells = assay: Cell viability assay, H2030; format: cell-based
# Protocol: as §1
# A549 (G12S) cells = assay: Cell viability assay, A549; format: cell-based
# Protocol: as §1
compound,measurement,setting,value
"Nc1ccn([C@@H]2O[C@H](CO)[C@@H](O)C2(F)F)c(=O)n1 [gemcitabine, 2′-deoxy-2′,2′-difluorocytidine monohydrochloride]",IC50,"[1]; Homo sapiens, MIA PaCa-2, MiaPaca-2 cells, 96 h, free gemcitabine or siRNA by lipofectamine",> 10 nM
"Non-Silencing: Non-silencing siRNA control; SEQ ID Nos. 1-2 (chain 1 CGAGCAGGGUAUCGACGAUUACAAA; chain 2 UUUGUAAUCGUCGAUACCCUGCUCG; RNA, backbone not given here; listed as Homo sapiens) [reference compound]",Nanoparticle size,[2],82.6
"PGN6 (no Gem): Modified Chk1 siRNA as PGN6 lacking gemcitabine; SEQ ID Nos. 7-8 (chain 1 AAGAAAGAGAUCUGUAUCAAU; chain 2 AUUGAUACAGAUCUCUUUCUUTT; chain 1: sugars from the 5' end mmmmmmfmffffmmmmmfmmm, backbone not given here; chain 2: sugars from the 5' end mfmmmfmmmmmmmfmffffffdd, backbone not given here; further chemistry not fully specified)",Activity/efficacy in reducing cell viability,[1],did not show good efficacy at higher concentrations
"PGN6: Chk1-targeting siRNA, 2′OMe/2′-fluoro modified, four gemcitabine nucleosides; SEQ ID Nos. 3-4 (chain 1 AAGAAAGAGAUUCGUAUCAAU; chain 2 AUUGAUACAGAUCUCUUUCUUCCUU; 2'-OMe/2'-F modified, four gemcitabine nucleosides, full pattern not given here)",Activity/efficacy in reducing cell viability,[3],greater potency
same,Zeta potential,[2]; siRNA formulated in HKP(+H),35.8 mV
same,Nanoparticle size,[2],86.7
same,Improvement of dose response over gemcitabine alone,[1],100 fold
same,Activity/efficacy in reducing cell viability,MDA-MB-231 (TNBC) cells,greater potency
"PGN7 (no Gem): Modified Chk1 siRNA as PGN7 lacking gemcitabine; SEQ ID Nos. 9-10 (chain 1 AAGAAAGAGAUCUGUAUCAAU; chain 2 AUUGAUACAGAUCUCUUUCUUTT; chain 1: sugars from the 5' end mmmmmmfmfffffmfmffmmf, backbone not given here; chain 2: sugars from the 5' end mfmmmfmmmmmfmfmfmfmfmdd, backbone not given here; further chemistry not fully specified)",Activity/efficacy in reducing cell viability,[1],did not show good efficacy at higher concentrations
"PGN7: Chk1-targeting siRNA, 2′OMe/2′-fluoro modified, four gemcitabine nucleosides; SEQ ID Nos. 5-6 (chain 1 AAGAAAGAGAUCUGUAUCAAU; chain 2 AUUGAUACAGAUCUCUUUCUUCCUU; 2'-OMe/2'-F modified, four gemcitabine nucleosides, full pattern not given here)",Activity/efficacy in reducing cell viability,[3],greater potency
same,IC50,H1299 (KRAS wt) cells,~6 nM
same,IC50,H358 cells (KRAS G12C),~1 nM
same,IC50,H2030 (G12C) cells,3 nM
same,IC50,A549 (G12S) cells,~6 nM
same,Improvement of dose response over gemcitabine alone,[1],100 fold
same,Activity/efficacy in reducing cell viability,MDA-MB-231 (TNBC) cells,greater potency
PGN7S (sense AAGAAAGAGAUCUGUAUCAAU; antisense AUUGAUACAGAUCUCUUUCUUCCDUDU; gemcitabine nucleotides; phosphorothioates; 5' LS on antisense; modified_base 1 OTHER; 2'-O-methyl adenosine; modified_base 9 OTHER; 2'-fluoro-guanosine; modified_base 15 OTHER; 2'-fluorouracil; modified_base 21 OTHER; modified_base 16 OTHER; modified_base 6 OTHER; modified_base 17 OTHER; modified_base 19 OTHER; modified_base 5 OTHER; m; modified_base 3 um; modified_base 4 gm; modified_base 7 OTHER; 2),Activity/efficacy in reducing cell viability,[1],weaker activity than either PGN6 or PGN7
